The values that follow come from publication PMC7822874, “Chemoprotective antimalarials identified through quantitative high-throughput screening of Plasmodium blood and liver stage parasites” (Scientific Reports, 2021).

Like-named read-outs stand apart in the source and are kept apart here.

The subject of series [1] is P. berghei-ANKA-GFP-LucCON liver stage parasites in HepG2-A16-CD81EGFP cells. Kind of series: P. berghei liver stage Pb-Luc assay, Method 1 (UCSD, 1536-well). The class given is cell-based, Plasmodium berghei. Particulars: for activity at 1 µM / activity at 3 µM: 48 h, average of 2 wells on a 1536 well plate; for activity at 1 µM: 1 uM (compounds provided at 10 mM); for activity at 3 µM: 3 uM (compounds provided at 10 mM).

In series [2] the test system is Plasmodium falciparum Dd2 asexual blood stage parasites. Kind of series: microbe, parasite or virus in culture. Also noted: species or system Plasmodium falciparum Dd2 in human erythrocytes; single determination (one 11-point concentration-response curve). Particulars: Plasmodium falciparum, DD2, Erythrocyte, 72 h; read-out: AC50.
Another series is described as follows: in vitro. Particulars: human, HepG2-A16-CD81EGFP cells, uninfected.
Where [3] appears, read: Plasmodium berghei, column 11, read-out: Pb-Luc (P. berghei liver stage), % of control, lower concentration, first repeat.
Where [4] appears, read: Plasmodium berghei, column 12, read-out: Pb-Luc (P. berghei liver stage), % of control, lower concentration, second repeat.
[5] abbreviates: Plasmodium berghei, column 8, read-out: Pb-Luc (P. berghei liver stage), % of control, higher concentration, first repeat.
Setting [6] is: Plasmodium berghei, column 9, read-out: Pb-Luc (P. berghei liver stage), % of control, higher concentration, second repeat.

Regarding `CC(C)(C)OC(=O)N1CCC(CC2CC(c3ccccc3)=NO2)(C(=O)NCc2ccccc2)CC1` (stereo not shown) [MLS002174287-01], the activity at 1 µM is 140% in series [1] (setting [3]) and 108% in series [1] (setting [4]). In addition, the activity at 3 µM in series [1] (setting [5]) came out at 65%; in series [1] (setting [6]) it was 115%. Besides, in series [2], the AC50 was 2660 nM. Besides, the viability at 48 h, 1 µM in the series “in vitro” is 111%. Moreover, in “in vitro”, the viability at 48 h, 3 µM is 95%.

For `Oc1cc(Cc2ccccc2)cnc1CN1CCCCC1` [MLS000104838-01], the activity at 1 µM in series [1] (setting [3]) is 128%; in series [1] (setting [4]), 110%. Moreover, the activity at 3 µM in series [1] (setting [5]) amounted to 97%; in series [1] (setting [6]) it was 103%. In series [2], the AC50 turned out to be 944 nM. For the same molecule, the viability at 48 h, 1 µM in “in vitro” was determined as 98%. For the same molecule, the viability at 48 h, 3 µM in the series “in vitro” was 105%.

For the molecule `NC1=NC[C@@H](Cc2ccc(O)cc2)N1CCCCC1CCCCC1` [MLS000888822-01], the activity at 1 µM worked out at 90% in series [1] (setting [3]) and 82% in series [1] (setting [4]). For the same molecule, the values for the activity at 3 µM in series [1] (setting [5]) and in series [1] (setting [6]) were 35% and 46%, respectively. Also, the AC50 in series [2] was 4730 nM. Further, in the series “in vitro”, the viability at 48 h, 1 µM is 116%. Further, the viability at 48 h, 3 µM in “in vitro” was 94%.

For `CCCSc1ccc([C@H]2N[C@@](Cc3ccccc3)(C(=O)OC)[C@H]3C(=O)N(CC)C(=O)[C@@H]23)cc1` [MLS001362807-01], the activity at 1 µM in series [1] (setting [3]) amounted to 115%; in series [1] (setting [4]), 102%. Besides, the figures for the activity at 3 µM in series [1] (setting [5]) and in series [1] (setting [6]) were 124% and 103%, respectively. In addition, in series [2], the AC50 came to 5310 nM. Besides, the viability at 48 h, 1 µM in the series “in vitro” came out at 109%. Besides, in the series “in vitro”, the viability at 48 h, 3 µM stood at 103%.

For the molecule `CCCCCNc1nc2sc3c(c2c(=O)n1-c1cccc(Cl)c1)CCN(C)C3` [MLS000762913-01], the activity at 1 µM in series [1] (setting [3]) is 99%; in series [1] (setting [4]) it was 101%. Further, the activity at 3 µM amounted to 72% in series [1] (setting [5]) and 91% in series [1] (setting [6]). The AC50 in series [2] stood at 7500 nM. The viability at 48 h, 1 µM in the series “in vitro” came to 92%. For the same molecule, the viability at 48 h, 3 µM in the series “in vitro” amounted to 105%.

In the case of `CN(CC(=O)Nc1cccc(F)c1)C(=O)c1ccc(-c2cccc(C(F)(F)F)c2)o1` [MLS001139679-01], the activity at 1 µM turned out to be 156% in series [1] (setting [3]) and 127% in series [1] (setting [4]). The activity at 3 µM in series [1] (setting [5]) was 81%; in series [1] (setting [6]) it was 96%. Besides, the AC50 in series [2] turned out to be 668 nM. The viability at 48 h, 1 µM in “in vitro” came out at 103%. Besides, the viability at 48 h, 3 µM in “in vitro” is 99%.

For `COc1cc(O)c(C(CCN2CCN(c3ccccc3)CC2)c2cc(OC)c(OC)c(OC)c2)c(OC)c1` (stereo not shown) [MLS000879517-01], the activity at 1 µM came out at 87% in series [1] (setting [3]) and 82% in series [1] (setting [4]). Further, the activity at 3 µM in series [1] (setting [5]) came out at 84%; in series [1] (setting [6]), 91%. In series [2], the half-maximal activity concentration (AC50) is 1330 nM. Besides, the viability at 48 h, 1 µM in the series “in vitro” was found to be 96%. Further, the viability at 48 h, 3 µM in “in vitro” is 102%.

In the case of `CC(C)(C)N1C(=O)c2ccc(C(=O)Nc3ccc(-c4nc5ccccc5[nH]4)cc3)cc2C1=O` [MLS000567491-01], the values for the activity at 1 µM in series [1] (setting [3]) and in series [1] (setting [4]) were 114% and 117%, respectively. Moreover, the figures for the activity at 3 µM in series [1] (setting [5]) and in series [1] (setting [6]) were 141% and 128%, respectively. In series [2], the AC50 turned out to be 6680 nM. Also, in the series “in vitro”, the viability at 48 h, 1 µM was 94%. Moreover, the viability at 48 h, 3 µM in “in vitro” is 108%.

For the molecule `CCCOc1ccc(CCc2nnc(S)n2Cc2ccccc2)cc1` [MLS000562311-01], the activity at 1 µM stood at 157% in series [1] (setting [3]) and 149% in series [1] (setting [4]). Moreover, the values for the activity at 3 µM in series [1] (setting [5]) and in series [1] (setting [6]) were 161% and 162%, respectively. The AC50 in series [2] turned out to be 5310 nM. Moreover, in “in vitro”, the viability at 48 h, 1 µM worked out at 122%. Moreover, in “in vitro”, the viability at 48 h, 3 µM is 100%.

As for `Fc1ccc(-c2csc3ncnc(Cl)c23)cc1` [MLS000590541-01], the results for the activity at 1 µM in series [1] (setting [3]) and in series [1] (setting [4]) were 115% and 105%, respectively. For the same molecule, the activity at 3 µM was found to be 120% in series [1] (setting [5]) and 132% in series [1] (setting [6]). Also, the AC50 in series [2] was 3350 nM. In addition, the viability at 48 h, 1 µM in “in vitro” came to 111%. Moreover, in the series “in vitro”, the viability at 48 h, 3 µM is 101%.

On to `Cc1ccc(C)c(NC(=O)CN(C)C(=O)c2ccc(-c3cccc(C(F)(F)F)c3)o2)c1` [MLS001161354-01], for which the activity at 1 µM in series [1] (setting [3]) stood at 171%; in series [1] (setting [4]) it was 168%. Also, the results for the activity at 3 µM in series [1] (setting [5]) and in series [1] (setting [6]) were 154% and 126%, respectively. In addition, the half-maximal activity concentration (AC50) in series [2] turned out to be 2110 nM. In addition, in “in vitro”, the viability at 48 h, 1 µM is 98%. The viability at 48 h, 3 µM in the series “in vitro” came to 102%.

As to `Cc1[nH]c2c(C)cccc2c(=O)c1Br` [MLS000036254-01], the “Max Resp (signal direction of the dose response)” value in series [1] (Method 1, Decrease = decreasing P. berghei viability with dose, Increase = increasing signal, Inactive = no dose response) was “Decrease”. For the same molecule, the AC50 in series [1] (Method 1, Hill fit, 50% of maximum activity response, read-out: AC50) was 1580 nM; in series [1] (Plasmodium berghei, Method 1, Hill fit, 50% of maximum activity response, read-out: AC50), 1120 nM; in series [1] (Plasmodium berghei, Method 1, log10 of molar AC50 from Hill fit, read-out: Log AC50 (converted)), 1120 nM; in series [2], 5310 nM. Also, the “Log AC50 (M)” value in series [1] (Method 1, log10 of molar AC50 from Hill fit) is recorded as -5.800 M. In addition, the viability at 48 h in the series “in vitro” is 107%. The viability at 48 h, 1 µM in “in vitro” was determined as 107%.

On to `Cn1c(S)nc2sc3c(c2c1=O)CCC(C(C)(C)C)C3` (stereo not shown) [MLS001198408-01], for which the activity at 1 µM in series [1] (setting [3]) stood at 80%; in series [1] (setting [4]) it was 94%. The results for the activity at 3 µM in series [1] (setting [5]) and in series [1] (setting [6]) were 69% and 61%, respectively. Besides, the AC50 in series [2] was determined as 5310 nM. Further, the viability at 48 h, 1 µM in “in vitro” worked out at 97%. Also, the viability at 48 h, 3 µM in “in vitro” worked out at 107%.

As for `CCOC(=O)c1c(C)oc2c1C(=O)c1ccccc1C2=O` [MLS000684830-01], the figures for the activity at 1 µM in series [1] (setting [3]) and in series [1] (setting [4]) were 95% and 85%, respectively. The activity at 3 µM in series [1] (setting [5]) stood at 72%; in series [1] (setting [6]), 93%. In addition, the concentration at half-maximal activity (AC50) in series [2] amounted to 422 nM. Further, the viability at 48 h, 1 µM in the series “in vitro” was 105%. For the same molecule, in the series “in vitro”, the viability at 48 h, 3 µM amounted to 99%.

As for `COc1cc(O)c(C(CCN2CCN(c3ccccc3)CC2)c2ccc3c(c2)OCO3)c(OC)c1` (stereo not shown) [MLS000879526-01], the figures for the activity at 1 µM in series [1] (setting [3]) and in series [1] (setting [4]) were 105% and 112%, respectively. The activity at 3 µM in series [1] (setting [5]) came to 97%; in series [1] (setting [6]), 92%. Further, the AC50 in series [2] was determined as 841 nM. Moreover, the viability at 48 h, 1 µM in “in vitro” was 117%. The viability at 48 h, 3 µM in “in vitro” was determined as 96%.

For `CCCc1cc(=O)oc2cc(C)cc(OCC(=O)Nc3ccccn3)c12` [MLS001160382-01], the activity at 1 µM was 212% in series [1] (setting [3]) and 140% in series [1] (setting [4]). Moreover, the values for the activity at 3 µM in series [1] (setting [5]) and in series [1] (setting [6]) were 42% and 160%, respectively. In series [2], the concentration at half-maximal activity (AC50) came out at 2110 nM. The viability at 48 h, 1 µM in the series “in vitro” turned out to be 97%. The viability at 48 h, 3 µM in “in vitro” was 111%.

Consider `COc1cc(C#Cc2c(-c3cncn3C)n(C)c3ccc(-c4ccc5[nH]ccc5c4)cc23)cc(OC)c1` [MLS002391601-01], for which the activity at 1 µM in series [1] (setting [3]) came out at 112%; in series [1] (setting [4]), 94%. Further, the values for the activity at 3 µM in series [1] (setting [5]) and in series [1] (setting [6]) were 111% and 101%, respectively. The AC50 in series [2] was determined as 2370 nM. In addition, the viability at 48 h, 1 µM in the series “in vitro” came out at 105%. Also, the viability at 48 h, 3 µM in “in vitro” was found to be 102%.

As for `CC1CCCN(Cc2c(O)ccc3c(=O)c(-c4ccc(Cl)cc4)coc23)C1` (stereo not shown) [MLS001196099-01], the activity at 1 µM in series [1] (setting [3]) was found to be 102%; in series [1] (setting [4]) it was 123%. For the same molecule, the activity at 3 µM was found to be 105% in series [1] (setting [5]) and 96% in series [1] (setting [6]). Moreover, in series [2], the AC50 was 1880 nM. Besides, the viability at 48 h, 1 µM in “in vitro” turned out to be 113%. Moreover, the viability at 48 h, 3 µM in “in vitro” turned out to be 99%.
